# Experimental data: patent US20060194740A1, “NOD1 as an anti-tumor agent” (priority 2005, published 2006)
# Key:
# MCF-7 C20 cells [1] = assay: Propidium iodide exclusion cell death assay, Nod1-deficient MCF-7 C20 cells; format: cell-based, human; conditions: C20 cells, charcoal-treated serum, γTriDAP/CHX (FIG. 12A, middle panel)
# Method: Cell viability assays. […] Subsequently, cells were harvested, washed twice in FACS buffer (PBS containing 1% FCS and 0.1% NaN3) and resuspended in propidium iodide (PI)—containing FACS buffer (4 ug/ml). The extent of cell death was analyzed with a FACSCalibur flow cytometer (Becton Dickinson, Mountain View, Calif.). DAPI staining: MCF-7 cells were plated in chamber slides, and stimulated for 2 days. Cells were washed with PBS and apoptotic nuclei were stained with 1 μg/ml DAPI (Sigma Chemical Co., St. Louis, Mo.). Cells were fixed in 4% paraformaldehyde and examined by fluorescence microscopy.
# (§1) To further investigate the role of Nod1 in apoptosis, a variety of cell types were incubated with the Nod1 ligand, […] (γTriDAP), which specifically activates Nod1. The cell types tested included the parental MCF-7 cell line, the Nod1-deficient MCF-7C20 clone, and a cell line engineered to contain an additional human Nod1 allele (MCF-7Nod1) so that Nod1 was over-expressed. To determine whether the resistance of C20 cells to γTriDAP-induced apoptosis resulted from the absence of Nod1, human Nod1 was stably expressed in MCF-7 C20 cells to produce Nod1-sufficient C20 cells (C20/Nod1). As another control, the parental MCF-7 cell line was transfected with an empty retroviral vector to generate MCF-7 Blasto cells. Cells were treated with γTriDAP in the presence or absence of cycloheximide (CHX) and cell death was then determined by propidium iodide staining and flow cytometry.
# MCF-7 C20/Nod1 cells = assay: Propidium iodide exclusion apoptosis assay, MCF-7 C20/Nod1 cells; format: cell-based, human; conditions: C20/Nod1 and Blasto cells, charcoal-treated serum, increasing estrogen (FIG. 12A)
# Method: Cell viability assays. Propidium iodide exclusion assay: Cells were stimulated as indicated for 2 days. Subsequently, cells were harvested, washed twice in FACS buffer (PBS containing 1% FCS and 0.1% NaN3) and resuspended in propidium iodide (PI)—containing FACS buffer (4 ug/ml). The extent of cell death was analyzed with a FACSCalibur flow cytometer (Becton Dickinson, Mountain View, Calif.). DAPI staining: MCF-7 cells were plated in chamber slides, and stimulated for 2 days. Cells were washed with PBS and apoptotic nuclei were stained with 1 μg/ml DAPI (Sigma Chemical Co., St. Louis, Mo.). Cells were fixed in 4% paraformaldehyde and examined by fluorescence microscopy.
# as §1
# To determine whether the presence of estrogens modulates Nod1-induced apoptotic pathway, cells were cultured in medium containing charcoal-treated serum.
# MCF-7 C20 cells [2] = assay: 3H-thymidine proliferation assay, MCF-7 C20 cells; format: cell-based, human; conditions: cells grown in the absence of estrogen, estrogen added; 3H-thymidine (FIG. 11D)
# Method: Retroviral transfections. The various genes used in this study were cloned into pMSCV-Blasto, pBabe-Puro or pBabe-Neo retroviral vectors. MCF-7 cells were stably transfected using available procedures. Briefly, amphotropic 293 cells were transfected with retroviral vectors encoding selected Nod1, Nod2 and other proteins. Twenty-four hours post-transfection, cells were incubated at 32° C. overnight to produce viral particles. Target cells were infected the next day with virus-containing 293 cell supernatants containing recombinant retroviral particles. Cells were selected with 10 μg/ml blasticidin S (Calbiochem EMD Biosciences Inc., San Diego, Calif.), 500 μg/ml […] (Invitrogen, Carlsbad, Calif.) or 5 μg/ml puromycin (Calbiochem). The expression of all constructs was confirmed by Western blot analysis. To determine the effects of 17β-estradiol (Calbiochem), cells were cultured in phenol red-free DMEM supplemented with […]. Cells were seeded in 96 well plates with various concentration of 17β-estradiol (E2) for 24 h and pulsed with ^3H-thymidine (1 μCi/well, MP Biomedicals, Irvine, Calif.). Cells were harvested on glass fiber filters and radioactivity measured by liquid scintillation. […]
# MCF-7 Blasto cells = assay: Human xenograft in SCID mice, MCF-7 Blasto cells; format: in vivo; conditions: mice injected with MCF-7 Blasto cells, estrogen pellets present (FIG. 11B)
# Method: (§2) Human xenografts in nude mice. MCF-7 Blasto, MCF-7 C20 and MCF-7 C20/Nod1 cells were trypsinized, washed once with PBS and resuspended to a concentration of 1.5×10^7/ml. Two hundred microliters of each suspension were inoculated subcutaneously into the flank of athymic SCID/SCID or SCID/Nod (non-obese diabetic) female mice. Tumor size was assessed once a week. Tumor volume was calculated.
# (§3) Nod1 controls tumor formation. Nod1-dependent apoptotic pathways might be important in a number of biological processes, including tumor cell growth regulation and a failure of malignant cells to undergo cell death, leading to tumorigenesis. A xenograft model of tumor growth in SCID mice was used to examine the role that Nod1 plays in tumor growth and tumor rejection. Populations of MCF-7Blasto, MCF-7C20 and MCF-7C20Nod1 cells (each totaling about 3×10^6 cells), were separately injected subcutaneously into the flanks of female mice to induce tumor growth in SCID/SCID or SCID/Nod1 mice. Animals were scored for tumor formation once a week post-injection for up to 8 weeks.
# (§4) In most studies, tumor formation by MCF-7 cells requires supplementation of estrogens for tumorigenesis in nude mice, even when cells are inoculated at high concentration. To further examine the role of estrogen in tumorigenesis, all three cell lines were injected into mice along with estrogen pellets (FIG. 11B). […]
# MCF-7 C20 cells [3] = assay: Human xenograft in SCID mice, MCF-7 C20 cells; format: in vivo; conditions: mice injected with MCF-7 C20 cells, estrogen pellets present (FIG. 11B)
# Method: as §2, §3, §4
# MCF-7 C20/Nod1 = assay: Human xenograft in SCID mice, MCF-7 C20/Nod1 cells; format: in vivo; conditions: mice that received MCF-7 C20/Nod1, estrogen pellets present (FIG. 11B)
# Method: as §2, §3, §4
substance,measurement,setting,value
17β-estradiol [estrogen],effect of estrogen upon apoptosis,MCF-7 C20 cells [1],little or no effect
same,effect of estrogen upon γTriDAP-induced apoptosis,MCF-7 C20/Nod1 cells,apoptosis increased in a dose-dependent manner
same,proliferative response,MCF-7 C20 cells [2],strong proliferative response
same,tumor growth,MCF-7 Blasto cells,tumors grew
same,tumor growth,MCF-7 C20 cells [3],grew even larger
same,tumor growth,MCF-7 C20/Nod1,did not grow tumors
